The text below walks through data of paper PMC3159312 (Enzyme Research, 2011).

Like-named read-outs stand apart in the source and are kept apart here.

The target of experiment [1] is T1, AfUGM (Aspergillus fumigatus, UniProt Q4W1X2).
T1 construct: made in house
Description: FP binding assay to determine chromophore binding affinities (AfUGM). The note with it: for Kd: UDP-fluorescent probes, 15 nM chromophore, serially diluted AfUGM, 0.05 M sodium phosphate pH 7.0, fluorescence anisotropy, read-out: K d for AfUGM; for Binding to AfUGM relative to the UDP-fluorescein analogs (times better): ratio of Kd values. As for the experimental part:
Solutions containing various concentrations of chromophore in 0.05 M sodium phosphate buffer (pH 7.0) were added to 12 wells in a 96-well half area black bottom plate (Corning) with final volumes of 25 μL. FP was analyzed by a SpectraMax M5 plate reader (Molecular Devices). The parallel fluorescence emission (F=) and perpendicular fluorescence emission (F⊥) at 524 nm (for compounds 1 and 2, excitation at 492 nm) or at 584 nm (for compounds 3 and 4, excitation at 544 nm) were measured by a SpectraMax M5 plate reader (Molecular Devices), and the anisotropy (r) was calculated using (1), the minimal concentration at which stable FP signals with minimal standard deviations were chosen as the optimal concentration for the chromophore.
(1) r=F=−G·F⊥/F=+2G·F⊥ (2) y=m1+(m2−m1) ×(x+Ct+m3)−(x+Ct+m3)^2−4xCt/2Ct
Solutions containing serially diluted AfUGM and 15 nM of chromophore in 0.05 M sodium phosphate buffer (pH 7.0) were incubated at room temperature for 5 minutes. Each experiment was done in triplicate in a 96-well black bottom plate at final volumes of 25 μL. Fluorescence anisotropy was measured as indicated above, and the K d values were obtained by fitting the anisotropy data to (2), where m 1 and m 2 are the minimum and maximum anisotropy values, respectively; m 3 is the K d value, and the total concentration of UDP-chromophore is represented by C t.
For orientation: Fluorescence polarisation rises when a labelled molecule tumbles more slowly, as on binding a larger partner.

For experiment [2], the target named is T2, MtUGM (Mycobacterium tuberculosis, UniProt P9WIQ1).
T2 construct: made in house
T2 sequence (P9WIQ1 whole entry): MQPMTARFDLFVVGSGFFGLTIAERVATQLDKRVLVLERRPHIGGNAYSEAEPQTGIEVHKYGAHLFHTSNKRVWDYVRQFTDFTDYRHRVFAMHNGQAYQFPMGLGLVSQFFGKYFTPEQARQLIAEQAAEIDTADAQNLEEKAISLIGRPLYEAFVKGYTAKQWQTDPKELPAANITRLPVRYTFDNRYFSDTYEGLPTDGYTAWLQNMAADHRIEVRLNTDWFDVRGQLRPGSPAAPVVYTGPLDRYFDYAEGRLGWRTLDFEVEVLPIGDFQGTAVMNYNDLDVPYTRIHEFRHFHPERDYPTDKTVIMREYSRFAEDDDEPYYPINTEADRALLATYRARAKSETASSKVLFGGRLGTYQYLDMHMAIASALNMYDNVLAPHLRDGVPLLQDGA
Description: FP binding assay to determine chromophore binding affinities (MtUGM). The note with it: UDP-fluorescent probes, fluorescence anisotropy; read-out: K d for MtUGM.

The target in experiment [3] is T1, AfUGM. Conditions: previously determined; read-out: K d for AfUGM by directly monitoring the flavin fluorescence; cited from earlier work.
Experiment [4] concerns the target T1, AfUGM. Description: Competitive binding experiments using FP inhibition assay (AfUGM, chromophore 3 as probe). As for the experimental part:
(§1) Each solution was done in triplicate. Anisotropy values were measured and the IC50 values obtained by fitting the data to (4), where m 1 and m 2 are the minimum and maximum anisotropy, respectively; m 3 is the slope, and m4 is the IC50.

Experiment [5] addresses T2, MtUGM. Description: Competitive binding FP inhibition assay (MtUGM). As for the experimental part:
as §1

Experiment [6] has as its target T1, AfUGM. Description: AfUGM activity assay (formation of UDP-Galp from UDP-Galf by HPLC). The format is biochemical. Conditions: 0.5 mM UDP-Galf, 50 nM AfUGM, 37°C, 10 min. As for the experimental part:
A 20 μL reaction containing 20 mM dithiothreitol, 0.5 mM UDP-Galf in 25 mM HEPES, 125 mM NaCl buffer, pH 7.5 in the absence of 7 or 8 was initiated by the addition of AfUGM at a final concentration of 50 nM. After incubation at 37°C for 10 min, the reaction was quenched by heat denaturation (95°C for 5 min) in a DNA engine thermocycler (BioRad, Hercules, Calif, USA). The same reaction was also performed in the presence of 7 (500 μM) or 8 (50 μM). The suspension was centrifuged and the supernatant was injected onto a CarboPac PA100 (Dionex) anion-exchange column. The sample was eluted isocratically with 75 mM KH2PO4 (pH 4.5), and the absorbance at 262 nm was monitored to identify fractions of substrate and product.

T1 sequence (Q4W1X2 whole entry): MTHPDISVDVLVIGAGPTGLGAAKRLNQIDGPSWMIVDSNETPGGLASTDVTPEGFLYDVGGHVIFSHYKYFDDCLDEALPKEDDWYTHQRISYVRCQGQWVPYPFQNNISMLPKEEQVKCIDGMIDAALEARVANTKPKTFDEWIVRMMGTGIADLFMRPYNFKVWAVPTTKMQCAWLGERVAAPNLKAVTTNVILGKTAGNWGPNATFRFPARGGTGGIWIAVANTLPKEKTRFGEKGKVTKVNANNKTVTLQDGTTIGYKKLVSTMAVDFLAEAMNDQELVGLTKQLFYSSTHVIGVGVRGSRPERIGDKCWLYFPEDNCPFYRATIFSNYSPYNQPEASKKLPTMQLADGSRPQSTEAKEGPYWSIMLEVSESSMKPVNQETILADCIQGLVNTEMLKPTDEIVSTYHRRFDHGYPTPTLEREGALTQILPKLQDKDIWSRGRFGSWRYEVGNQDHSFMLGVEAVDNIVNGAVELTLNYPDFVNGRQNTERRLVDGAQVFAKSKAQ

For `CN(C)c1ccc2c(-c3ccc(C(=O)NCCCCCCOP(=O)(O)OP(=O)(O)OCC4OC(n5ccc(=O)[nH]c5=O)C(O)C4O)cc3C(=O)[O-])c3ccc(=[N+](C)C)cc-3oc2c1` (stereo not drawn) [Chromophore 3], on AfUGM [1], the Kd was determined as 2.6 ± 0.2 µM and the “Binding to AfUGM relative to the UDP-fluorescein analogs (times better)” value is given as ~ 6 times. The Kd at MtUGM [2] worked out at 0.73 ± 0.07 µM.

Consider `CN(C)c1ccc2c(-c3ccc(C(=O)NCCOP(=O)(O)OP(=O)(O)OCC4OC(n5ccc(=O)[nH]c5=O)C(O)C4O)cc3C(=O)[O-])c3ccc(=[N+](C)C)cc-3oc2c1` (stereo not drawn) [Chromophore 4], for which, on AfUGM [1], the Kd was found to be 3 ± 0.7 µM and the “Binding to AfUGM relative to the UDP-fluorescein analogs (times better)” value is ~ 6 times. The Kd on MtUGM [2] is above 30 µM.

Regarding `O=c1ccn([C@@H]2O[C@H](COP(=O)(O)OP(=O)(O)O)[C@@H](O)[C@H]2O)c(=O)[nH]1` [UDP], the Kd is 33 ± 9 µM on AfUGM [3]; 9 ± 1.7 µM at AfUGM [4] (read-out: K d for AfUGM); 15 ± 2 µM at MtUGM [5] (UGM ligands, FP competition, read-out: K d for MtUGM).

Take `O=C(Nc1ccccc1C(=O)O)c1ccc2c(c1)C(=O)N(c1ccc(Br)cc1)C2=O` [compound 7]: the “Inhibition of AfUGM activity (conversion of UDP-Galf to UDP-Galp, HPLC)” value at AfUGM [6] (inhibitor 500 μM) was “inhibit the activity of AfUGM”. Also, the Kd at AfUGM [4] is 140 ± 9 µM; at MtUGM [5] it was 21 ± 1 µM.

With `O=C1N/C(=N/S(=O)(=O)c2ccccc2)S/C1=C1/C(=O)Nc2ccc([N+](=O)[O-])cc21` [compound 8], the “Inhibition of AfUGM activity (conversion of UDP-Galf to UDP-Galp, HPLC)” value on AfUGM [6] (inhibitor 50 μM) is reported as “inhibit the activity of AfUGM”. For the same compound, the Kd at AfUGM [4] came out at 11 ± 0.4 µM; on MtUGM [5], 25 ± 2 µM.
